Measurements as given in patent publication US12679827B2, “Pyrimidine compounds and their pharmaceutical uses” (National Health Research Institutes, priority 2020, dated 2026).

Columns and labels:
NCI-H82 = assay: Small-cell-lung cancer cell proliferation inhibition assay (PrestoBlue), NCI-H82; assay type: cell-based; conditions: Homo sapiens, cMYC amplified SCLC cells, 72 hours
Procedure: (§1) Small cell lung cancer cells NCI-H82 (ATCC HTB-175, cMYC amplified), NCI-H446 (ATCC® HTB-171, cMYC amplified), and NCI-H69 (ATCC® HTB-119, MYCN amplified) were seeded at the density of 5000-10000 cells per well in 96-well plates. After 24 hours, the cancer cells were treated with each compound at various concentrations (0-10 μM) and then incubated for another 72 hours. IC50 values were computed based on duplicated 8-point titration.

NCI-H446 = assay: Small-cell-lung cancer cell proliferation inhibition assay (PrestoBlue), NCI-H446; assay type: cell-based; conditions: Homo sapiens, cMYC amplified SCLC cells, 72 hours
Procedure: as §1

[1] = biological target: T1, human Aurora A (amino acids 123-401) (Homo sapiens, UniProt O14965); assay: Kinase-Glo Luminescent Kinase assay, in vitro inhibition of Aurora A kinase activity; assay type: biochemical; conditions: recombinant GST-tagged Aurora A, 5.0 μM ATP, 37° C., 120 minutes
T1 construct: human Aurora A (amino acids 123-401) was expressed in Sf9 insect cells; GST; made in house; host or cells: Sf9 insect cells
T1 sequence (O14965 123-401): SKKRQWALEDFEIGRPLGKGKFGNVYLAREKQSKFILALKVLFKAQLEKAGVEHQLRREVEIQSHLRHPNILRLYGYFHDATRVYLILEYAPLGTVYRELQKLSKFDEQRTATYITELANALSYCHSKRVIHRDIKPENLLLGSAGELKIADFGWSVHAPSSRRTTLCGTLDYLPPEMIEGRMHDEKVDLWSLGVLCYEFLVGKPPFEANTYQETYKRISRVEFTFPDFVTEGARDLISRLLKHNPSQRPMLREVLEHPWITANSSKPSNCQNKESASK
Procedure: Recombinant glutathione S-transferase (GST)-tagged N-terminal truncated human Aurora A (amino acids 123-401) was expressed in Sf9 insect cells and then purified by glutathione affinity chromatography to afford recombinant Aurora A. Recombinant Aurora A (150 ng) was reacted with each test compound (100 nM) in 50 μL of 50 mM Tris-HCl pH 7.4, 10 mM NaCl, 10 mM MgCl2, 0.01% bovine serum albumin, 5.0 μM ATP, 1 mM dithiothreitol, 15 μM tetra(-LRRASLG) peptide at 37° C. for 120 minutes. Then, to the reaction was added 50 μL of Kinase-Glo Plus Reagent. The resulting mixture was incubated at 25° C. for 20 minutes. A 70 μL aliquot of the mixture was transferred to a black microliter plate. Luminescence was measured using a Wallac Vector 1420 multilabel counter (PerkinElmer, USA).

Structure (SMILES) | IC50 (NCI-H82) | IC50 (NCI-H446) | IC50 [1]
CCN1CCN(c2cc(Nc3ncc(C#N)s3)nc(N[C@H]3CCN(C(=O)c4ccc(Cl)cc4F)C3)n2)CC1 [Compound 1] | < 1000 nM | < 1000 nM | < 100 nM
CCOC(=O)c1cnc(Nc2cc(N3CCN(C)CC3)nc(N[C@H]3CCN(C(=O)c4ccc(Cl)cc4F)C3)n2)s1 [Compound 2] | < 1000 nM | – | < 100 nM
Cc1cc(Nc2cc(N3CC(N(C)C)C3)nc(N[C@H]3CCN(C(=O)c4ccc(Cl)cc4F)C3)n2)n[nH]1 [Compound 8] | < 1000 nM | < 1000 nM | < 100 nM
CC(=O)N1CCN(c2cc(Nc3cc(C)[nH]n3)nc(N[C@H]3CCN(C(=O)c4ccc(Cl)cc4F)C3)n2)CC1 [Compound 12] | < 1000 nM | < 1000 nM | < 100 nM
COCCN(C)c1cc(Nc2cc(C)[nH]n2)nc(N[C@H]2CCN(C(=O)c3ccc(Cl)cc3F)C2)n1 [Compound 17] | < 1000 nM | < 1000 nM | < 100 nM
Cc1cc(Nc2cc(N3CC[C@@H](N(C)C)C3)nc(N[C@H]3CCN(C(=O)c4ccc(Cl)cc4F)C3)n2)n[nH]1 [Compound 18] | < 1000 nM | < 1000 nM | –
COC1CN(c2cc(Nc3cc(C)[nH]n3)nc(N[C@H]3CCN(C(=O)c4ccc(Cl)cc4F)C3)n2)C1 [Compound 19] | < 1000 nM | < 1000 nM | < 100 nM
Cc1cc(Nc2cc(N3CC[C@@H](N(C)C)C3)nc(N[C@H]3CCN(C(=O)c4cccc(Cl)c4F)C3)n2)n[nH]1 [Compound 20] | – | – | < 100 nM
Cc1cc(Nc2cc(N3CC[C@H](N(C)C)C3)nc(N[C@H]3CCN(C(=O)c4cccc(Cl)c4F)C3)n2)n[nH]1 [Compound 22] | < 1000 nM | < 1000 nM | < 100 nM
COC[C@@H]1CCCN1c1cc(Nc2cc(C)[nH]n2)nc(N[C@H]2CCN(C(=O)c3cccc(Cl)c3F)C2)n1 [Compound 23] | – | – | < 100 nM
COC[C@H]1CCCN1c1cc(Nc2cc(C)[nH]n2)nc(N[C@H]2CCN(C(=O)c3cccc(Cl)c3F)C2)n1 [Compound 24] | – | – | < 100 nM
Cc1cc(Nc2cc(N3CC(N(C)C)C3)nc(N[C@H]3CCN(C(=O)c4cccc(Cl)c4F)C3)n2)n[nH]1 [Compound 25] | < 1000 nM | < 1000 nM | < 100 nM
Cc1cc(Nc2cc(N3CCNCC3)nc(N[C@H]3CCN(C(=O)c4cccc(Cl)c4F)C3)n2)n[nH]1 [Compound 26] | < 1000 nM | < 1000 nM | < 100 nM
Cc1cc(Nc2cc(N(C)CCN(C)C)nc(N[C@H]3CCN(C(=O)c4cccc(Cl)c4F)C3)n2)n[nH]1 [Compound 27] | < 1000 nM | < 1000 nM | < 100 nM
COC1CCN(c2cc(Nc3cc(C)[nH]n3)nc(N[C@H]3CCN(C(=O)c4cccc(Cl)c4F)C3)n2)CC1 [Compound 28] | – | – | < 100 nM
CCN1CCN(c2cc(Nc3cc(C)[nH]n3)nc(N[C@H]3CCN(C(=O)c4ccc(Cl)cc4)C3)n2)CC1 [Compound 29] | – | – | < 100 nM
Cc1cc(Nc2cc(N3CCN(C)CC3)nc(N[C@H]3CCN(Cc4cccc(Cl)c4F)C3)n2)n[nH]1 [Compound 30] | – | – | < 100 nM
CCN1CCN(c2cc(Nc3cc(C)[nH]n3)nc(N[C@H]3CCN(Cc4cccc(Cl)c4F)C3)n2)CC1 [Compound 31] | < 1000 nM | < 1000 nM | < 100 nM
CCN1CCN(c2cc(Nc3cc(C)[nH]n3)nc(N[C@H]3CCN(C(=O)c4ccc(Cl)cc4Cl)C3)n2)CC1 [Compound 32] | < 1000 nM | < 1000 nM | < 100 nM
CCN1CCN(c2cc(Nc3cc(C)[nH]n3)nc(N[C@H]3CCN(C(=O)c4ccc(Cl)c(C)c4)C3)n2)CC1 [Compound 33] | – | – | < 100 nM
CCN1CCN(c2cc(Nc3cc(C)[nH]n3)nc(N[C@H]3CCN(C(=O)c4ccc(Cl)cc4C)C3)n2)CC1 [Compound 34] | – | – | < 100 nM
Cc1cc(Nc2cc(N3CCN(C)CC3)nc(N[C@H]3CCN(C(=O)c4cccc(Cl)c4F)C3)n2)n[nH]1 [Compound 35] | < 1000 nM | < 1000 nM | < 100 nM
Cc1cc(Nc2cc(N3CCN(C)CC3)nc(N[C@H]3CCN(C(=O)c4ccc(Cl)cc4F)C3)n2)n[nH]1 [Compound 36] | < 1000 nM | < 1000 nM | < 100 nM

Next, values leading:

IC50 (NCI-H82) | IC50 (NCI-H446) | IC50 [1] | Structure (SMILES)
< 1000 nM | < 1000 nM | < 100 nM | CCN1CCN(c2cc(Nc3cc(C)[nH]n3)nc(N[C@H]3CCN(C(=O)c4cc(Cl)ccc4F)C3)n2)CC1 [Compound 37]
< 1000 nM | < 1000 nM | < 100 nM | CCN1CCN(c2cc(Nc3cc(C)[nH]n3)nc(N[C@H]3CCN(C(=O)c4cccc(Cl)c4F)C3)n2)CC1 [Compound 38]
< 1000 nM | < 1000 nM | < 100 nM | CCN1CCN(c2cc(Nc3cc(C)[nH]n3)nc(N[C@H]3CCN(C(=O)c4ccc(Cl)c(F)c4)C3)n2)CC1 [Compound 39]
< 1000 nM | < 1000 nM | < 100 nM | CCN1CCN(c2cc(Nc3cc(C)[nH]n3)nc(N[C@H]3CCN(C(=O)c4ccc(Cl)c(F)c4F)C3)n2)CC1 [Compound 40]
– | – | < 100 nM | CCN1CCN(c2cc(Nc3cc(C)[nH]n3)nc(NC3CCN(C(=O)c4cccc(Cl)c4F)C3)n2)CC1 (centres unmarked) [Compound 58]
< 1000 nM | < 1000 nM | – | CCN1CCN(c2cc(Nc3cc(C)nn3C(C)=O)nc(N[C@H]3CCN(C(=O)c4ccc(Cl)cc4F)C3)n2)CC1 [Compound 70]
< 1000 nM | < 1000 nM | – | COCCN(C)c1cc(Nc2cc(C)[nH]n2)nc(NC2CCN(C(=O)c3cccc(Cl)c3F)CC2)n1 [Compound 98]
– | – | < 100 nM | CCN1CCN(c2cc(Nc3cc(C)[nH]n3)nc(N(CC)C3CCN(C(=O)c4cccc(Cl)c4F)CC3)n2)CC1 [Compound 109]
– | – | < 100 nM | Cc1cc(Nc2ccnc(NC3CCN(Cc4cccc(Cl)c4F)CC3)n2)n[nH]1 [Compound 110]
– | – | < 100 nM | Cc1cc(Nc2cc(C)[nH]n2)nc(N(C)C2CCN(Cc3cccc(Cl)c3F)CC2)n1 [Compound 111]
– | – | < 100 nM | Cc1cc(Nc2ccnc(NC3CCN(C(=O)c4cccc(F)c4F)CC3)n2)n[nH]1 [Compound 113]
– | – | < 100 nM | Cc1cc(Nc2cc(C)[nH]n2)nc(NC2CCN(C(=O)c3cccc(F)c3F)CC2)n1 [Compound 114]
– | – | < 100 nM | Cc1cc(Nc2nccs2)nc(N(C)C2CCN(Cc3cccc(Cl)c3F)CC2)n1 [Compound 115]
– | – | < 100 nM | Cc1cc(Nc2nccs2)nc(NC2CCN(Cc3cccc(Cl)c3F)CC2)n1 [Compound 116]
– | – | < 100 nM | Cc1cc(Nc2ccnc(NC3CCN(C(=O)c4cccc(Cl)c4Cl)CC3)n2)n[nH]1 [Compound 118]
– | – | < 100 nM | Cc1cc(Nc2cc(C)[nH]n2)nc(NC2CCN(Cc3cccc(Cl)c3F)CC2)n1 [Compound 119]
– | – | < 100 nM | Cc1cc(Nc2cc(C)[nH]n2)nc(NC2CCN(C(=O)c3cccc(Cl)c3F)CC2)n1 [Compound 120]
– | – | < 100 nM | Cc1cc(Nc2cc(C)[nH]n2)nc(NC2CCN(C(=O)c3cccc(Cl)c3Cl)CC2)n1 [Compound 121]
< 1000 nM | < 1000 nM | – | CCN1CCN(c2cc(Nc3cc(C)nn3C(=O)C(C)C)nc(NC3CCN(C(=O)c4cccc(Cl)c4F)CC3)n2)CC1 [Compound 124]
< 1000 nM | < 1000 nM | – | CCCC(=O)n1nc(C)cc1Nc1cc(N2CCN(CC)CC2)nc(NC2CCN(C(=O)c3cccc(Cl)c3F)CC2)n1 [Compound 125]
